From US10519211B2, “Compounds as peptidic GLP1/glucagon/GIP receptor agonists” (SANOFI, priority 2016, dated 2019)
Numbered stars: 1 amine (or outer) side, 2 acyl side, 3 side chain; on linkers, the order of the positions; unused ones are H or OH. Square brackets hold non-standard residues; d marks the D form. Side chains are listed from the residue outwards. Peptide text beside a SMILES is read from it. * marks the point of attachment. γGlu = O=C(O)[C@H](CCC(=O)[*:2])N[*:1]; Palmitoyl = CCCCCCCCCCCCCCCC(=O)*; AEEA = NCCOCCOCC(=O)O; Aib = CC(C)(N)C(=O)O

Tests used:
[1] = Chemical stability assessment (UPLC-UV, relative purity loss); format: physicochemical; conditions: 1 mg/ml, 25 mM acetate buffer pH 4.5 with m-cresol (buffer system A)
Description: Prior to the chemical stability measurement of a peptide batch, its purity was determined through UPLC/MS. For stability testing the target concentration was 1 mg pure compound/ml. Therefore solutions from solid samples were prepared in a buffer system with a concentration of 1 mg/mL compound based on the previously determined % purity:
Chemical stability buffer system A) 25 mM acetate buffer pH4.5, 3 mg/mL L-Methionine, 2.7 mg/mL m-cresol, 18 mg/mL Glycerol 85%
Peptide solutions were filtered through […] pore size and filled into aliquots under aseptic conditions. At starting point UPLC-UV was performed by injection of 2 μl of the undiluted sample.
For chemical stability testing, aliquots were stored for 28 days at Sand 40° C. After this time course the samples were centrifuged for 15 min at 2500 RCF. Then 2 μl of the undiluted supernatant were analysed with UPLC-UV.
The chemical stability was rated through the relative loss of purity calculated by the equation: [(purity at starting point)−(purity after 28 days at X° C.)]/(purity at starting point)]*100%
The purity is calculated as [(peak area peptide)/(total peak area)]*100%
Peptide samples were prepared in Chemical stability buffer system A and chemical stability was assessed as described in Methods.

[2] = target: T1, human GIP receptor (hGIP-R) (Homo sapiens, UniProt P48546); experiment: cAMP response (HTRF) of HEK-293 cells stably expressing human GIP receptor; format: cell-based; conditions: Table 8; cAMP formation
T1 construct: expressed in transfected cells; host or cells: HEK-293
T1 sequence (P48546 22-466): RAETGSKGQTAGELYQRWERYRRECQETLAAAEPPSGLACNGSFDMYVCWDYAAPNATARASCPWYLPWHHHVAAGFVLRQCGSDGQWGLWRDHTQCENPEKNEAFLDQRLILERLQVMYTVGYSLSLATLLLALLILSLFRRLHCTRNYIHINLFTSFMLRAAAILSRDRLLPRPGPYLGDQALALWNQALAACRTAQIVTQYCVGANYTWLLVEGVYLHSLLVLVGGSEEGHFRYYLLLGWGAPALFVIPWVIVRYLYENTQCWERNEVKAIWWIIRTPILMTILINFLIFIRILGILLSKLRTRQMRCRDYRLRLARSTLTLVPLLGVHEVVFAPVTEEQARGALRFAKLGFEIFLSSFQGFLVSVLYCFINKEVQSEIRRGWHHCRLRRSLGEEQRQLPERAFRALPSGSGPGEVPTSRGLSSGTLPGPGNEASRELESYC
Description: cAMP content of cells was determined using a kit from Cisbio Corp. (cat. no. 62AM4PEJ) based on HTRF (Homogenous Time Resolved Fluorescence). For preparation, cells were split into T175 culture flasks and grown overnight to near confluency in medium (DMEM/10% FBS). Medium was then removed and cells washed with PBS lacking calcium and magnesium, followed by proteinase treatment with accutase (Sigma-Aldrich cat. no. A6964). Detached cells were washed and resuspended in assay buffer (1×HBSS; 20 mM HEPES, 0.1% BSA, 2 mM IBMX) and cellular density determined. They were then diluted to 400000 cells/ml and 25 μl-aliquots dispensed into the wells of 96-well plates. For measurement, 25 μl of test compound in assay buffer was added to the wells, followed by incubation for 30 minutes at room temperature.
Potencies of peptidic compounds at the GLP-1, glucagon and GIP receptors were determined by exposing cells expressing human glucagon receptor (hGlucagon R), human GIP receptor (hGIP-R) or human GLP-1 receptor (hGLP-1 R) to the listed compounds at increasing concentrations and measuring the formed cAMP as described in Methods.

[3] = Thioflavin T (ThT) assay for physical stability (fibrillation); format: physicochemical; conditions: 3 mg/ml, 100 mM acetate pH 4.5 with m-cresol, shaking at 37° C.
Description: Investigations were carried out to determine fibrillation tendencies under stress conditions by shaking at 37° C. within Fluoroskan Ascent FL.
For the tests in Fluoroskan Ascent FL, 200 μL sample were placed into a 96 well mictrotiter plate PS, flat bottom, Greiner Fluotrac No. 655076. Plates were sealed with Scotch Tape (Quiagen). Samples were stressed by continuous cycles of 10 s shaking at 960 rpm and 50 s rest period at 37° C. The kinetic was monitored by measuring fluorescence intensity every 20 minutes.
Peptides were diluted in a buffer system to a final concentration of 3 mg/ml. 20 μL of a 10.1 mM ThT solution in H2O were added to 2 mL of peptide solution to receive a final concentration of 100 μM ThT. For each sample eight replicates were tested.
Tht buffer system A) 100 mM Acetate pH 4.5 including m-cresol (100 mM Natriumacetat trihydrat, pH adjustment using 2N CH3COOH, 2.7 mg/mL m-cresol) Tht buffer system B) 100 mM citrate buffer pH 6.0
Lag time in hours in Thioflavin T (ThT) assay of peptide samples was determined in Tht buffer system A as described in Methods.

[4] = Dynamic light scattering (DLS), hydrodynamic radius as surrogate for interaction parameter kD; format: physicochemical
Description: For every peptide solution, the hydrodynamic radius Rh and the diffusion constant D (related via the Stokes-Einstein equation) were determined as an average over triplicates. Both parameters were determined at different concentrations (e.g., Rh1 and D1: 1 mg/ml and Rh5 and D5: 5 mg/ml) in the same buffer system. The difference of these parameters between low and high peptide concentration is a surrogate for the DLS interaction parameter kD. Rh5<Rh1 or D5>D1 correspond to kD>0 and therefore to repulsive inter-particle interactions that result in improved physical (or colloidal) stability.
DLS buffer system A) 25 mM acetate buffer pH4.5, 3 mg/mL L-Methionine, 2.7 mg/mL m-cresol, 18 mg/mL Glycerol 85%
DLS Method C: DLS measurements were performed on a DynaPro Plate Reader II (Wyatt Technology, Santa Barbara, Calif., US) and using one of the following black, low volume, and non-treated plates: polystyrene 384 assay plate with clear bottom (Corning, N.Y., US), polystyrene 96 assay plate with clear bottom (Corning, N.Y., US), cyclo olefin polymer (COP) 384 assay plate with clear bottom (Aurora, Mont., US), or polystyrene 384 assay plate with clear bottom (Greiner Bio-One, Germany). The data were processed with the Dynamics software provided by Wyatt Technology. Parameters of the particle size distribution were determined with non-negatively constrained least squares (NNLS) methods using DynaLS algorithms. Measurements were taken at 25° C. with an 830 nm laser light source at an angle of 158°.
The hydrodynamic radius radius Rh of peptide samples was determined at different peptide concentrations (1 mg/ml and 5 mg/ml) in DLS buffer system A using DLS method C as described in Methods as surrogate for the DLS interaction parameter kD.

[5] = Solubility assessment (UPLC-UV); format: physicochemical; conditions: acetate buffer pH 4.5, 2.7 mg/ml m-cresol (buffer system A), target 10 mg/ml
Description: Prior to the solubility measurement of a peptide batch, its purity was determined through UPLC/MS.
Therefore solutions from solid samples were prepared in a buffer systems with a concentration of 10 mg/mL compound based on the previously determined % purity:
Solubility buffer system A) Acetate Buffer pH 4.5, 100 mM sodium acetate trihydrate, 2.7 mg/ml m-Cresol
UPLC-UV was performed after 1 hour of gentle agitation from the supernatant, which was obtained after 15 min of centrifugation at 2500 RCF (relative centrifugal acceleration).
The solubility was determined by the comparison of the UV peak area of 2 μL-injection of a buffered sample diluted 1:10 with a standard curve of a reference peptide with known concentration. The different UV extinction coefficients of sample and reference peptide were calculated based on the different amino acid sequences and considered in the concentration calculation.
Peptide samples were prepared in solubility buffer system A and solubility was assessed as described in Methods.

| Chemical stability [relative purity loss 28 days 40° C.] (%) at pH 4.5 [1] [%] | EC50 [2] [pM] | Lag time before increase [3] [h] | Delta Rh [nm] = Rh5 − Rh1 ([4]; DLS buffer system A pH 4.5) [nm] | Rh1 [nm] c= 1 mg/ml ([4]; hydrodynamic radius, 1 mg/ml, DLS buffer system A pH 4.5, DLS method C, 25° C.) [nm] | Rh5 [nm] c = 5 mg/ml ([4]; hydrodynamic radius, 5 mg/ml, DLS buffer system A pH 4.5, DLS method C, 25° C.) [nm] | solubility at 1 h [5] [µg/mL] | Structure (SMILES) |
| --- | --- | --- | --- | --- | --- | --- | --- |
| 6.0 | 7.9 | >45 | −0.1 | 3.1 | 3.0 | > 9200 | CCCCCCCCCCCCCCCC(=O)NCCOCCOCC(=O)N[C@@H](CCC(=O)N[C@@H](CCC(=O)NCCCC[C@H](NC(=O)[C@H](CC(C)C)NC(=O)[C@H](CCCCN)NC(=O)[C@H](CO)NC(=O)[C@H](CC(C)C)NC(=O)[C@H](CC(=O)O)NC(=O)[C@H](CO)NC(=O)[C@@H](NC(=O)[C@H](Cc1ccccc1)NC(=O)[C@@H](NC(=O)CNC(=O)[C@H](CCC(N)=O)NC(=O)C(C)(C)NC(=O)[C@@H](N)Cc1c[nH]cn1)[C@@H](C)O)[C@@H](C)O)C(=O)N[C@@H](CCC(=O)O)C(=O)N[C@@H](CCC(=O)O)C(=O)N[C@@H](CCC(N)=O)C(=O)N[C@@H](CCCNC(=N)N)C(=O)N[C@@H](CCC(N)=O)C(=O)NC(C)(C)C(=O)N[C@@H](CCC(=O)O)C(=O)N[C@@H](Cc1ccccc1)C(=O)N[C@H](C(=O)N[C@@H](CCC(=O)O)C(=O)N[C@@H](Cc1c[nH]c2ccccc12)C(=O)N[C@@H](CC(C)C)C(=O)N[C@@H](CCCCN)C(=O)N[C@@H](C)C(=O)N[C@H](C)C(=O)NCC(=O)N[C@@H](Cc1c[nH]cn1)C(=O)N1CCC[C@H]1C(=O)N[C@@H](CO)C(=O)NC(C)(C)C(=O)N[C@@H](CCCCN)C(=O)N1CCC[C@H]1C(=O)N1CCC[C@H]1C(=O)N1CCC[C@H]1C(=O)N[C@@H](CCCCN)C(N)=O)[C@@H](C)CC)C(=O)O)C(=O)O [SEQ ID NO: 19, H-Aib-Q-G-T-F-T-S-D-L-S-K-L-K[gGlu-gGlu-AEEA-Palm]-E-E-Q-R-Q-Aib-E-F-I-E-W-L-K-A-dAla-G-H-P-S-Aib-K-P-P-P-K-NH2] (H-H[Aib]QGTFTSDLSKLK([γGlu-γGlu-AEEA-Palmitoyl])EEQRQ[Aib]EFIEWLKA[dA]GHPS[Aib]KPPPK-NH2) |
| – | 5.6 | >45 | – | – | – | – | CCCCCCCCCCCCCCCC(=O)NCCOCCOCC(=O)N[C@@H](CCC(=O)N[C@@H](CCC(=O)NCCCC[C@H](NC(=O)[C@H](CC(C)C)NC(=O)[C@H](CCCCN)NC(=O)[C@H](CO)NC(=O)[C@H](CC(C)C)NC(=O)[C@H](CC(=O)O)NC(=O)[C@H](CO)NC(=O)[C@@H](NC(=O)[C@H](Cc1ccccc1)NC(=O)[C@@H](NC(=O)CNC(=O)[C@H](CCC(N)=O)NC(=O)C(C)(C)NC(=O)[C@@H](N)Cc1c[nH]cn1)[C@@H](C)O)[C@@H](C)O)C(=O)N[C@@H](CCC(=O)O)C(=O)N[C@@H](CCC(=O)O)C(=O)N[C@@H](CCC(N)=O)C(=O)N[C@@H](CCCNC(=N)N)C(=O)N[C@@H](CCC(N)=O)C(=O)NC(C)(C)C(=O)N[C@@H](CCC(=O)O)C(=O)N[C@@H](Cc1ccccc1)C(=O)N[C@H](C(=O)N[C@@H](CCC(=O)O)C(=O)N[C@@H](Cc1c[nH]c2ccccc12)C(=O)N[C@@H](CC(C)C)C(=O)N[C@@H](CCCCN)C(=O)N[C@@H](C)C(=O)NCC(=O)NCC(=O)N[C@@H](Cc1c[nH]cn1)C(=O)N1CCC[C@H]1C(=O)N[C@@H](CO)C(=O)NC(C)(C)C(=O)N[C@@H](CCCCN)C(=O)N1CCC[C@H]1C(=O)N1CCC[C@H]1C(=O)N1CCC[C@H]1C(=O)N[C@@H](CCCCN)C(N)=O)[C@@H](C)CC)C(=O)O)C(=O)O [SEQ ID NO: 18, H-Aib-Q-G-T-F-T-S-D-L-S-K-L-K[gGlu-gGlu-AEEA-Palm]-E-E-Q-R-Q-Aib-E-F-I-E-W-L-K-A-G-G-H-P-S-Aib-K-P-P-P-K-NH2] (H-H[Aib]QGTFTSDLSKLK([γGlu-γGlu-AEEA-Palmitoyl])EEQRQ[Aib]EFIEWLKAGGHPS[Aib]KPPPK-NH2) |
